According to patent US20030114492A1, “Method of using neurotrophic sulfonamide compounds” (priority 1997, published 2003):

Tests used:
[1] = test system: TH-positive dopaminergic neurons in the striatum; assay: MPTP model of Parkinson's Disease, TH immunostaining of striatum; type: in vivo; settings: MPTP-lesioned CD1 mice (30 mg/kg i.p. for 5 days), compound 4 mg/kg s.c. for 10 days, striatum at 18 days
Method: MPTP lesioning of dopaminergic neurons in mice was used as an animal model of Parkinson's Disease. Four week old male CD1 white mice were dosed i.p. with 30 mg/kg of MPTP for 5 days. Test compounds (4 mg/kg), or vehicle, were administered s.c. along with the MPTP for 5 days, as well as for an additional 5 days following cessation of MPTP treatment. At 18 days following MPTP treatment, the animals were sacrificed and the striata were dissected and perfusion-fixed. Immunostaining was performed on saggital and coronal brain sections using anti-tyrosine hydroxylase […] to quantitate survival and recovery of dopaminergic neurons. In animals treated with MPTP and vehicle, a substantial loss of functional dopaminergic terminals was observed as compared to non-lesioned animals.

FKBP12 = FKBP12 (Homo sapiens, UniProt P62942); assay: Ki test procedure: inhibition of peptidyl-prolyl isomerase (rotamase) activity, chymotrypsin-coupled assay; type: biochemical; settings: apparent Ki, rotamase activity of FKBP, substrate N-succinyl-Ala-Ala-Pro-Phe-p-nitroanilide
Excerpt: The inhibition of the prolyl peptidyl cis-trans isomerase activity of FKBP may be measured as an indicator of this affinity.
Inhibition of the peptidyl-prolyl isomerase (rotamase) activity of the inventive compounds can be evaluated by known methods described in the literature (Harding, et al., Nature, 1989, 341:758-760; Holt et al. J. Am. Chem. Soc., 115:9923-9938). These values are obtained as apparent Ki's and are presented in Table I. The cis-trans isomerization of an alanine-proline bond in a model substrate, N-succinyl-Ala-Ala-Pro-Phe-p-nitroanilide, is monitored spectrophotometrically in a chymotrypsin-coupled assay, which releases para-nitroanilide from the trans form of the substrate. The inhibition of this reaction caused by the addition of different concentrations of inhibitor is determined, and the data is analyzed as a change in first-order rate constant as a function of inhibitor concentration to yield the apparent Ki values.
In a plastic cuvette are added […] of ice cold assay buffer (25 mM HEPES, pH 7.8, 100 mM NaCl), […] of FKBP (2.5 mM in 10 mM Tris-Cl pH 7.5, 100 mM NaCl, 1 mM dithiothreitol), […] of chymotrypsin (50 mg/ml in 1 mM HCl) and […] of test compound at various concentrations in dimethyl sulfoxide. The reaction is initiated by the addition of 5 mL of substrate (succinyl-Ala-Phe-Pro-Phe-para-nitroanilide, 5 mg/mL in 2.35 mM LiCl in trifluoroethanol).
The absorbance at 390 nm versus time is monitored for 90 seconds using a spectrophotometer and the rate constants are determined from the absorbance versus time data files.

[2] = test system: chick dorsal root ganglia; assay: Chick dorsal root ganglion cultures and neurite outgrowth; type: cell-based; settings: Gallus gallus, 48 h; read-out: ED50 (the source's name)
Method: Dorsal root ganglia were dissected from chick embryos of ten day gestation. Whole ganglion explants were cultured on thin layer Matrigel-coated 12 well plates with Liebovitz L15 plus high glucose media supplemented with 2 mM glutamine and 10% fetal calf serum, and also containing 10 μM cytosine β-D arabinofuranoside (Ara C) at 37° C. in an environment containing 5% CO2. Twenty-four hours later, the DRGs were treated with various immunophilin ligands. Forty-eight hours after drug treatment, the ganglia were visualized under phase contrast or Hoffman Modulation contrast with a Zeiss Axiovert inverted microscope. Photomicrographs of the explants were made, and neurite outgrowth was quantitated. Neurites longer than the DRG diameter were counted as positive, with total number of neurites quantitated per each experimental condition. Three to four DRGs are cultured per well, and each treatment was performed in duplicate.
The data for these experiments for representative compounds are presented in the “ED50” column of Table I.

Chain of FKBP12 (P62942 whole entry, species assumed): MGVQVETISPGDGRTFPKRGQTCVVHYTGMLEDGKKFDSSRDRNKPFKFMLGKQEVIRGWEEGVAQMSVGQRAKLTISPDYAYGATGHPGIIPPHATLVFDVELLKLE

SMILES | % Rescue, TH Immunostaining at 4 mg/kg, s.c. [1] [%] | Ki (FKBP12) [nM] | EC50 [2] [nM]
O=C(OCCCCc1ccccc1)C1CCCCN1S(=O)(=O)c1ccccc1 (stereo not drawn) [4-phenyl-1-butyl-N-(benzenesulfonyl) pipecolate] | 29.22 |  | 
O=C(OCCCc1cccnc1)[C@@H]1CCCN1S(=O)(=O)Cc1ccccc1 [Compound 1, 3-(3-Pyridyl)-1-propyl(2S)-N-(α-toluenesulfonyl)pyrrolidine-2-carboxylate] | 44.31 | 72 | 0.002
O=C(OCCCCc1ccccc1)C1CCCCN1S(=O)(=O)Cc1ccccc1 (stereo not drawn) [Compound 2, 4-Phenyl-1-butyl 1-(α-tolylsulfonyl)-2-pipecolinate] | 38.00 | 34 | 0.031
O=C(OC(CCc1ccccc1)CCc1ccccc1)C1CCCCN1S(=O)(=O)Cc1ccccc1 (stereo not drawn) [Compound 3, 1,5-Diphenyl-3-pentyl N-(α-toluenesulfonyl)-pipecolate] |  | 107 | 0.133
